Source: paper PMC11722533, “Discovery and mechanism of a highly selective, antifungal acetyl CoA synthetase inhibitor” (Research Square, 2025)
Each block holds one compound with its values, some of them ahead of it.

Experiments:
[1] = biological target: T1, CnAcs1 (acetyl CoA synthetase) (Cryptococcus neoformans, UniProt J9VFT1); experiment: coupled pyrophosphate-release enzyme assay; type: biochemical
T1 construct: gene CNAG_00797; His-tagged recombinant CnAcs1 expressed in E. coli
T1 sequence (J9VFT1 1-680): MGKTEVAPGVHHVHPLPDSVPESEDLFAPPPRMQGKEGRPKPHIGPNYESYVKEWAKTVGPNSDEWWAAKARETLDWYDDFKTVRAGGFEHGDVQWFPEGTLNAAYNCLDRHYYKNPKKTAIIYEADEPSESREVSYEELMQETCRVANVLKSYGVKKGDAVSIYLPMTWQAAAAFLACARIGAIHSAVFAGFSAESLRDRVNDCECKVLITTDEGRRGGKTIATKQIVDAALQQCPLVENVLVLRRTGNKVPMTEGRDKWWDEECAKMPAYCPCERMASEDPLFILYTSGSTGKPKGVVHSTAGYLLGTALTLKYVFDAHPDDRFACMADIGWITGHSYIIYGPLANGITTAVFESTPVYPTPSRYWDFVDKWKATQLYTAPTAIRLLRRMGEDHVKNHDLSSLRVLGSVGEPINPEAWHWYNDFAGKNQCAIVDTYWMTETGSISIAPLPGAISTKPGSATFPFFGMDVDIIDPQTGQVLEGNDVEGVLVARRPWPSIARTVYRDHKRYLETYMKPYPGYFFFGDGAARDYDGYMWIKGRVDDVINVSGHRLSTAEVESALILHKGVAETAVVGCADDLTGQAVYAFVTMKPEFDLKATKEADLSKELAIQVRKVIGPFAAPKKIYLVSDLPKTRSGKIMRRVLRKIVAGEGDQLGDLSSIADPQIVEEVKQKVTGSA

[2] = biological target: T1, CnAcs1 (acetyl CoA synthetase); experiment: X-ray co-crystal structure; type: biochemical; conditions: cited from earlier work
Source text: X-ray co-crystal structure on CnAcs1 (acetyl CoA synthetase) | we obtained an X-ray crystal structure of CnAcs1 bound to the cyclopropyl-AMP ester

[3] = biological target: Cryptococcus neoformans Acs1 (acetyl CoA synthetase) (C. neoformans); experiment: mass photometry; single molecule, in solution, to low concentrations; with and without supra-inhibitory isoxazole 1 (apparent size unchanged)
[4] = biological target: Cryptococcus neoformans Acs1 (acetyl CoA synthetase) (C. neoformans); experiment: crystal structure; co-crystal of CnAcs1 (10 mg/mL in 20 mM NaCl, 20 mM Tris pH 8.5, 1 mM TCEP) with 2 mM isoxazole 1; sitting drop vapor diffusion at 18 °C; PDB 9CD8

IC50 [1]: 2.8 µM
Compound: O=C(NNC(=O)c1csnn1)c1ccc(Cl)cc1 [MMV084978]

Compound: Nc1ncnc2c1ncn2[C@@H]1O[C@H](COP(=O)(O)OC2CC2)[C@@H](O)[C@H]1O [cyclopropyl-AMP]
IC50 [2]: 9 µM

stoichiometry N [3]: 3 | stoichiometry N [4]: 3
Compound: Cryptococcus neoformans Acs1 (acetyl CoA synthetase) (enzyme)
